Laboratory results from patent US20080312301A1, “Substituted N-Benzo[D]Isoxazol-3-Yl-Amine Compounds as Inhibitors of Mglur5, Serotonin (5-Ht) and Noradrenaline Receptors, and Uses Thereof” (Gruenenthal GmbH, priority 2005, published 2008).

What follows are molecules tested against T1, NA transporter (Rattus norvegicus, UniProt Q63380) (assay: Noradrenaline (NA) uptake inhibition in rat brain synaptosomes (hypothalamus), [3H]-NA). Conditions: not given.
T1 construct: from tissue; host or cells: rat hypothalamus synaptosomes (P2 fraction)
T1 sequence (Q63380 1-617): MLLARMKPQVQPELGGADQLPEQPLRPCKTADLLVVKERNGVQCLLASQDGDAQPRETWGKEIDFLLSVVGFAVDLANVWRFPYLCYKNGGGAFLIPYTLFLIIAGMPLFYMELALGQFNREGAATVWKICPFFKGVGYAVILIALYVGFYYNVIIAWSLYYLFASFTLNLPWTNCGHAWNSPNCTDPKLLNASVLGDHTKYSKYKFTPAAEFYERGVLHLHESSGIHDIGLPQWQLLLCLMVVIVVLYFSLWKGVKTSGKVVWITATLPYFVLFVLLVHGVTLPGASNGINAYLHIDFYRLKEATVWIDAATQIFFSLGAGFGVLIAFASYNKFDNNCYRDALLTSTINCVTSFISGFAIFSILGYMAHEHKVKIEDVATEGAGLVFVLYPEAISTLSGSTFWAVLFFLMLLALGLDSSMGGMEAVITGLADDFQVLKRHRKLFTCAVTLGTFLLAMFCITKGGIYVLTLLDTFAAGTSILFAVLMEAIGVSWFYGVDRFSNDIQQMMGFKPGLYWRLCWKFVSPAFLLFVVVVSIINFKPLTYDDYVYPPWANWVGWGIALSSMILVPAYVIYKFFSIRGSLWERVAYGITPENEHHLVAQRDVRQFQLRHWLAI
Format: biochemical
Excerpt: (§1) I. Method for Determining the Noradrenaline and 5HT Uptake Inhibition:
(§2) For in vitro studies, synaptosomes were freshly isolated from rat brain areas as described in the publication “The isolation of nerve endings from brain” by E. G. Gray and V. P. Whittaker, J. Anatomy 96, pages 79-88, 1962. The corresponding literature description is introduced hereby as reference and forms part of the disclosure.
(§3) The tissue (hypothalamus for determining the noradrenaline uptake inhibition and medulla and pons for determining the 5HT uptake inhibition) was homogenized in ice-cold 0.32 M sucrose (100 mg of tissue/1 ml) in a glass homogenizer with Teflon pestle using five full up and down strokes at 840 revolutions/minute. The homogenate was centrifuged at 1000 g and at 4° C. for 10 minutes. After subsequent centrifugation at 17 000 g for 55 minutes, the synaptosomes (P2 fraction) are obtained and were resuspended in 0.32 M […] (0.5 ml/100 mg of the original weight).
(§4) The respective uptake was measured in a 96-well microtiter plate. The volume was 250 μl and incubation took place at room temperature (approx. 20-25° C.) under an O2 atmosphere.
(§5) The incubation time was 7.5 minutes for [^3H]-NA and 5 minutes for [^3H]-5-HT. The 96 samples were then filtered through a Unifilter GF/B® microtiter plate (Packard) and washed with […] of incubated buffer using a “Brabdel MPXRI-96T Cell Harvester”. The Unifilter GF/B plate was dried at 55° C. for 1 h. The plate was then sealed with a Back Seal® (Packard) and 35 μl of scintillation fluid were added per well (Ultima Gold®, Packard). After sealing with a top Seal® (Packard), the radioactivity was determined, after equilibrium had been reached (about 5 h), in a “Trilux 1450 Microbeta” (Wallac).
The following characteristic data were found for the NA transporter:
(§6) The amount of protein employed in the above determination corresponded to the value disclosed in the literature, as described for example in “Protein measurement with the folin phenol reagent”, Lowry et al., J. Biol. Chem., 193, 265-275, 1951. A detailed description of the method can also be found in the literature, for example from M. Ch. Frink, H.-H. Hennies, W. Engelberger, M. Haurand and B. Wilffert (1996) Arzneim.-Forsch./Drug Res. 46 (III), 11, 1029-1036. The corresponding literature descriptions are hereby introduced as reference and form part of the disclosure.

| SMILES | NA uptake inhibition [%] conc. 10 μM |
| --- | --- |
| CN(C)c1cccc2onc(NC(=O)C3CCCCC3)c12 [Example 73, cyclohexane-(4-dimethylaminobenzo[d]isoxazol-3-yl)carboxamide] | 70% |
| O=C(Nc1noc2c(F)cccc12)c1ccc2ccccc2c1 [Example 57, naphthalene-2-(7-fluorobenzo[d]isoxazol-3-yl)carboxamide] | 67% |
| O=C(Nc1noc2cc(Cl)ccc12)c1ccc2ccccc2c1 [Example 41, naphthalene-2-(6-chlorobenzo[d]isoxazol-3-yl)carboxamide] | 61% |
| O=C(Nc1noc2c(F)cccc12)c1ccco1 [Example 63, furan-2-(7-fluorobenzo[d]isoxazol-3-yl)carboxamide] | 64% |
| O=C(Nc1noc2cccc(F)c12)c1cc2ccccc2s1 [Example 12, benzo[b]thiophene-2-(4-fluorobenzo[d]isoxazol-3-yl)carboxamide] | 60% |

Same assay, conditions: conc. 10 μM

| SMILES | inhibition at 10 µM |
| --- | --- |
| O=C(Nc1noc2cccc(OCC(F)(F)F)c12)c1ccc(F)c(F)c1 [Example 82, 3,4-difluoro-N-[4-(2,2,2-trifluoroethoxy)benzo[d]isoxazol-3-yl]benzamide] | 68% |
| O=C(Nc1noc2cccc(OCC(F)(F)F)c12)c1ccc(F)cc1C(F)(F)F [Example 77, 4-fluoro-N-[4-(2,2,2-trifluoroethoxy)benzo[d]isoxazol-3-yl]-2-trifluoromethyl-benzamide] | 70% |
| O=C(Nc1noc2cc(Br)ccc12)c1ccc(F)c(F)c1 [Example 49, N-(6-bromobenzo[d]isoxazol-3-yl)-3,4-difluorobenzamide] | 65% |
| O=C(Nc1noc2c(F)ccc(F)c12)c1ccccc1C(F)(F)F [Example 51, 7-fluoro-N-(4-fluorobenzo[d]isoxazol-3-yl)-2-trifluoromethylbenzamide] | 71% |
| O=C(Nc1noc2c(F)cccc12)C(c1ccccc1)c1ccccc1 [Example 62, N-(7-fluorobenzo[d]isoxazol-3-yl)-2,2-diphenylacetamide] | 63% |
| O=C(Nc1noc2cccc(OCC(F)(F)F)c12)c1ccc(F)c(F)c1F [Example 80, 2,3,4-trifluoro-N-[4-(2,2,2-trifluoroethoxy)benzo[d]isoxazol-3-yl]benzamide] | 66% |
| O=C(Nc1noc2c(F)cccc12)c1cccnc1Cl [Example 56, 2-chloro-N-(7-fluorobenzo[d]isoxazol-3-yl)nicotinamide] | 72% |
| O=C(Nc1noc2cc(Br)ccc12)c1ccc(F)cc1C(F)(F)F [Example 43, N-(6-bromobenzo[d]isoxazol-3-yl)-4-fluoro-2-trifluoromethylbenzamide] | 66% |
| O=C(Nc1noc2cccc(OCC(F)(F)F)c12)c1cc(F)c(Cl)cc1Cl [Example 78, 2,4-dichloro-5-fluoro-N-[4-(2,2,2-trifluoroethoxy)benzo[d]isoxazol-3-yl]benzamide] | 66% |

What follows are molecules tested against T2, 5-HT uptake (serotonin reuptake) (Rattus norvegicus, UniProt P31652) (assay: 5HT uptake inhibition in rat brain synaptosomes (medulla and pons), [3H]-5-HT). Conditions: not given.
T2 construct: from tissue; host or cells: rat medulla and pons synaptosomes (P2 fraction)
T2 sequence (P31652 whole entry): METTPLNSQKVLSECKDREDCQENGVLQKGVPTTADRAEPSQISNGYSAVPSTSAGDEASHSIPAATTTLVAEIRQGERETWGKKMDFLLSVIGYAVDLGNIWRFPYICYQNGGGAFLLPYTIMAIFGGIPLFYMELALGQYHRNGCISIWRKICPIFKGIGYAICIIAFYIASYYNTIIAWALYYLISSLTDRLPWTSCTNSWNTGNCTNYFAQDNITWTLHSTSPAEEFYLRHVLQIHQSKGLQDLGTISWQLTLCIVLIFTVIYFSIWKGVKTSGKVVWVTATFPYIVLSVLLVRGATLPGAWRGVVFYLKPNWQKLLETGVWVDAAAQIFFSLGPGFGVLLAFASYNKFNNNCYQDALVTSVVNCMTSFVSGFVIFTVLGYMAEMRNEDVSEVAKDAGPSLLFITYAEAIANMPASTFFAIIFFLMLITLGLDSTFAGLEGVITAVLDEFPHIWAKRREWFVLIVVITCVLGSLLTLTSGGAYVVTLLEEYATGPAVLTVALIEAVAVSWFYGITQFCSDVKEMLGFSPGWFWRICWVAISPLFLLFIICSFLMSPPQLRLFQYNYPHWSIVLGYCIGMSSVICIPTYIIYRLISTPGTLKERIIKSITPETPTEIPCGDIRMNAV
Format: biochemical
Excerpt: as §1, §2, §3, §4, §5, §6

| SMILES | 5 HT uptake inhibition [%] conc. 10 μM |
| --- | --- |
| O=C(Nc1noc2cc(F)ccc12)c1cccs1 [Example 17, thiophene-2-(6-fluorobenzo[d]isoxazol-3-yl)carboxamide] | 77% |
| O=C(Nc1noc2cc(Br)ccc12)c1ccccc1C(F)(F)F [Example 23, N-(6-bromobenzo[d]isoxazol-3-yl)-2-trifluoromethyl benzamide] | 86% |
| COc1cccc2onc(NC(=O)c3cc(C(F)(F)F)cc(C(F)(F)F)c3)c12 [Example 33, N-(4-methoxybenzo[d]isoxazol-3-yl)-3,5-bistrifluoromethyl benzamide] | 85% |
| O=C(Nc1noc2cc(Br)ccc12)C1C2CC3CC(C2)CC1C3 (stereo not shown) [Example 24, adamantane-2-(6-bromobenzo[d]isoxazol-3-yl)carboxamide] | 79% |

Same assay, conditions: conc. 10 μM

| SMILES | inhibition at 10 µM |
| --- | --- |
| COc1cccc(C(=O)Nc2noc3cc(Cl)ccc23)c1 [Example 20, N-(6-chlorobenzo[d]isoxazol-3-yl)-3-methoxybenzamide] | 77% |
| CN(C)c1cccc2onc(NC(=O)c3cc(C(F)(F)F)cc(C(F)(F)F)c3)c12 [Example 35, N-(4-dimethylaminobenzo[d]isoxazol-3-yl)-3,5-bistrifluoromethylbenzamide] | 86% |
| O=C(Nc1noc2ccccc12)c1ccc(Cl)c(Cl)c1 [Example 14, N-benzo[d]isoxazol-3-yl-3,4-dichlorobenzamide] | 69% |
| O=C(Nc1noc2ccc(F)cc12)c1ccccc1C(F)(F)F [Example 26, N-(5-fluorobenzo[d]isoxazol-3-yl)-2-trifluoromethylbenzamide] | 82% |
| CC(C)(C)c1ccc(C(=O)Nc2noc3cccc(OCC(F)(F)F)c23)cc1 [Example 38, 4-tert-butyl-N-[4-(2,2,2-trifluoroethoxy)benzo[d]isoxazol-3-yl]benzamide] | 77% |
| CCC(C)C(=O)Nc1noc2cc(F)ccc12 (stereo not shown) [Example 18, N-(6-fluorobenzo[d]isoxazol-3-yl)-2-methylbutyramide] | 70% |
| O=C(Nc1noc2cccc(OCC(F)(F)F)c12)c1cccc(Cl)c1 [Example 37, 3-chloro-N-[4-(2,2,2-trifluoroethoxy)benzo[d]isoxazol-3-yl]benzamide] | 90% |
| COc1cccc2onc(NC(=O)c3cc(F)cc(F)c3)c12 [Example 34, 3,5-difluoro-N-(4-methoxybenzo[d]isoxazol-3-yl)benzamide] | 78% |
| O=C(Nc1noc2cccc(OCC(F)(F)F)c12)c1ccccc1Br [Example 36, 2-bromo-N-[4-(2,2,2-trifluoroethoxy)benzo[d]isoxazol-3-yl]benzamide] | 84% |
| O=C(Nc1noc2ccccc12)c1cccc(F)c1F [Example 15, N-benzo[d]isoxazol-3-yl-2,3-difluorobenzamide] | 86% |
| COc1ccccc1C(=O)Nc1noc2cccc(OCC(F)(F)F)c12 [Example 39, 2-methoxy-N-[4-(2,2,2-trifluoroethoxy)benzo[d]isoxazol-3-yl]benzamide] | 82% |
| O=C(Nc1noc2ccc(Br)cc12)c1cc(C(F)(F)F)ccc1F [Example 29, N-(5-bromobenzo[d]isoxazol-3-yl)-2-fluoro-5-trifluoromethylbenzamide] | 83% |
| COc1ccccc1C(=O)Nc1noc2cc(Br)ccc12 [Example 22, N-(6-bromobenzo[d]isoxazol-3-yl)-2-methoxybenzamide] | 79% |
| Cc1ccc2onc(NC(=O)c3ccccc3C(F)(F)F)c2c1 [Example 31, N-(5-methylbenzo[d]isoxazol-3-yl)-2-trifluoromethylbenzamide] | 69% |
| CN(C)c1cccc2onc(NC(=O)c3cccc(F)c3)c12 [Example 16, N-(4-dimethylaminobenzo[d]isoxazol-3-yl)-3-fluorobenzamide] | 72% |
| CCC(C)C(=O)Nc1noc2cc(Br)ccc12 (stereo not shown) [Example 25, N-(6-bromobenzo[d]isoxazol-3-yl)-2-methylbutyramide] | 86% |
| O=C(Nc1noc2ccccc12)c1ccccc1C(F)(F)F [Example 13, N-benzo[d]isoxazol-3-yl-2-trifluoromethylbenzamide] | 84% |
| O=C(Nc1noc2ccc(F)cc12)c1ccc(Cl)c(Cl)c1 [Example 27, 3,4-dichloro-N-(5-fluorobenzo[d]isoxazol-3-yl)benzamide] | 89% |
| CC(C)(C)c1ccc(C(=O)Nc2noc3cc(Br)ccc23)cc1 [Example 21, N-(6-bromobenzo[d]isoxazol-3-yl)-4-tert-butylbenzamide] | 81% |

What follows are molecules tested against T3, mGluR5 receptor (Sus scrofa, UniProt I3LUI7) (assay: Affinity for the mGluR5 receptor: displacement of 3[H]-MPEP binding in pig brain homogenate). Conditions: 10 μM compound, 5 nM 3[H]-MPEP.
T3 construct: 450 μg of protein from brain homogenate are incubated with 5 nM^3[H]-MPEP; from tissue; host or cells: pig brain hemispheres without medulla, cerebellum and pons
T3 sequence (I3LUI7 19-1212): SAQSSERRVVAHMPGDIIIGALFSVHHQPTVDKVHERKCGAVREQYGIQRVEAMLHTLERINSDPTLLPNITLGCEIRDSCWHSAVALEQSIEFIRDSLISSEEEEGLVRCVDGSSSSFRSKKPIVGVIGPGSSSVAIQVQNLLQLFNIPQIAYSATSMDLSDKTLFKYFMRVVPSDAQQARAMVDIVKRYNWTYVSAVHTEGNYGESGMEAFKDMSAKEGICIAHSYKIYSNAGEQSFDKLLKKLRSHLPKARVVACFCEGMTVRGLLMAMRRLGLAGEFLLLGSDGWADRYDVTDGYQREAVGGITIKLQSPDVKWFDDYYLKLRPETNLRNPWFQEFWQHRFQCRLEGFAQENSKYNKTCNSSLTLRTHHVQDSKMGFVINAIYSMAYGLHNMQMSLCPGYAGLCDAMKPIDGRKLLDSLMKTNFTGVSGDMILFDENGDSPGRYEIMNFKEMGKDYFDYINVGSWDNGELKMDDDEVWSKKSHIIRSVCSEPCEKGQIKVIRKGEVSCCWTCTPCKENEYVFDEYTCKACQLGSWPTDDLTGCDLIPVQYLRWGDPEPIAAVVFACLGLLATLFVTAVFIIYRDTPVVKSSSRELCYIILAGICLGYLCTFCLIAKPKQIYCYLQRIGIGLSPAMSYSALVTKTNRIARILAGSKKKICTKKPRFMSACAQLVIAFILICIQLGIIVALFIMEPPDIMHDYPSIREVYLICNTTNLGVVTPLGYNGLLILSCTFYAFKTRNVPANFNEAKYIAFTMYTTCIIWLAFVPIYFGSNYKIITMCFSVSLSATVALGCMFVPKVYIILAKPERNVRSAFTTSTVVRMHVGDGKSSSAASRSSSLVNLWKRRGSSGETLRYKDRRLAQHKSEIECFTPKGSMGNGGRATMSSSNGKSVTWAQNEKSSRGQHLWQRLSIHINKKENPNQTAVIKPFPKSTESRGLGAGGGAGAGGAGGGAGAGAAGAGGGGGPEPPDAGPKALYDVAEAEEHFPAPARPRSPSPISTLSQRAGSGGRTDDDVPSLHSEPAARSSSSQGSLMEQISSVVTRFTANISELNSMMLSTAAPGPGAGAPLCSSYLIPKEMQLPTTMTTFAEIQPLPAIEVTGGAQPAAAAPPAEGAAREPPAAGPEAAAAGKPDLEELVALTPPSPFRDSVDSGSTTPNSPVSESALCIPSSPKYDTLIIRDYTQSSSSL
Protocol: II. Method for Determining the Affinity for the mGluR5 Receptor
In each case 450 μg of protein from brain homogenate are incubated with 5 nM^3[H]-MPEP (Tocris, order No. R1212) (MPEP=2-methyl-6-[…]) and the compounds to be investigated (10 μM in the assay) in buffer (as above) in 250 μl incubation mixtures in 96-well microtiter plates at room temperature for 60 min.
The filter plates were then dried at 55° C. for 60 min.

| SMILES | inhibition at 10 µM | mGluR5 receptor inhibition of the 3[H]-MPEP binding in % (10 μM) |
| --- | --- | --- |
| O=C(Nc1noc2cccc(OCC(F)(F)F)c12)c1ccc(F)c(F)c1 [Example 82, 3,4-difluoro-N-[4-(2,2,2-trifluoroethoxy)benzo[d]isoxazol-3-yl]benzamide] | 42% |  |
| CN(C)c1cccc2onc(NC(=O)C3CCCCC3)c12 [Example 73, cyclohexane-(4-dimethylaminobenzo[d]isoxazol-3-yl)carboxamide] |  | 30.05% |
| O=C(Nc1noc2cccc(OCC(F)(F)F)c12)c1ccc(F)cc1C(F)(F)F [Example 77, 4-fluoro-N-[4-(2,2,2-trifluoroethoxy)benzo[d]isoxazol-3-yl]-2-trifluoromethyl-benzamide] | 38% |  |
| O=C(Nc1noc2cccc(OCC(F)(F)F)c12)c1ccccc1Br [Example 36, 2-bromo-N-[4-(2,2,2-trifluoroethoxy)benzo[d]isoxazol-3-yl]benzamide] | 30.3% |  |
| COc1ccccc1C(=O)Nc1noc2cccc(OCC(F)(F)F)c12 [Example 39, 2-methoxy-N-[4-(2,2,2-trifluoroethoxy)benzo[d]isoxazol-3-yl]benzamide] | 30.5% |  |
| O=C(Nc1noc2cc(Br)ccc12)c1ccc(F)c(F)c1 [Example 49, N-(6-bromobenzo[d]isoxazol-3-yl)-3,4-difluorobenzamide] | 36.9% |  |
